# Where a name gives a salt, the structure may show the parent alone. Read-outs that look alike come from different tables or passages of the source.
# What was measured:
# PDK1 = PDK1 (Homo sapiens (Human), UniProt O15530); assay: PDK1 kinase assay (coupled PDK1/AKT/FAM-crosstide assay, IMAP fluorescence polarization); format: biochemical
# How it was run: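 GST-tagged human PDK1 (aa 51-359, 0.75 nM) from insect cells activated unphosphorylated GST-AKT2 (aa 140-467–PIFtide fusion, 10 nM), which phosphorylated 100 nM FAM-crosstide; 40 μM ATP, pH 7.2 Tris/MgCl2, 30 min at 25° C. IMAP fluorescence polarization read-out; ΔmP versus compound concentration fitted with a 4-parameter curve.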
# [1] = tested on: phospho-akt (Thr308) in PC-3 cells; assay: Inhibition of phospho-akt (Thr308) in PC-3 cells, MSD phospho-akt 308 ELISA kit; format: cell-based; settings: Homo sapiens, 2 hours, no serum, read-out: EC50
# How it was run: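 PC-3 cells (15,000/well, overnight in 10% FBS medium) treated 2 h with three-fold diluted compounds in serum-free medium; DMSO high and 5 μM wortmannin low controls. Lysates captured on BSA-blocked MSD plates overnight at 4 °C, then 1 h antibody detection at RT; phospho-Akt Thr308 read by MSD electrochemiluminescence.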
# [2] = inhibition of P308 Akt in PC-3 cells using MSD
# [3] = inhibition of phospo-PDK1 in vitro
# [4] = inhibition of P308 Akt in PC-3 cells, MSD
# Chain of PDK1 (O15530 51-359): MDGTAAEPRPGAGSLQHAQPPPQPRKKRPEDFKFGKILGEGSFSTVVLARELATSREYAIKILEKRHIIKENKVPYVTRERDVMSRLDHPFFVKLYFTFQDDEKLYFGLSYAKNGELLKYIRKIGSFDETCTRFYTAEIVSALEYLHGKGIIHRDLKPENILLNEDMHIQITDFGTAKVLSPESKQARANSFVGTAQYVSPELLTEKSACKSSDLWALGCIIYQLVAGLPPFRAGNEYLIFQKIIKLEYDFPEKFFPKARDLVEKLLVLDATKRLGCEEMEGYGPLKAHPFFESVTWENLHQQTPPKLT
SMILES,IC50 (PDK1; inhibition of PDK1 in vitro),"EC50 [1, 2]",IC50 (PDK1; [3]),"EC50 [1, 4]","EC50 ([1]; PC-3, 2 h, inhibition of P308 Akt in PC-3 cells using MSD)"
"O=C(NCc1ccc(F)c(F)c1)c1cccnc1NCc1ccc(-c2cnc3[nH]ncc3c2)s1 [Example 2.32, 2-(((5-(1H-pyrazolo[3,4-b]pyridin-5-yl)thiophen-2-yl)methyl)amino)-N-(3,4-difluorobenzyl) nicotinamide]",–,–,< 0.1 µM,1 to 10 µM,–
"CC(C)Oc1cc(CNc2ncccc2C(=O)NCC2CC2)cc(-c2c[nH]c3ncc(C(=O)NC4CC4)cc23)c1 [Example 4.1.11, N-cyclopropyl-3-{3-[({3-[(cyclopropylmethyl)carbamoyl]pyridin-2-yl}amino)methyl]-5-(propan-2-yloxy)phenyl}-1H-pyrrolo[2,3-b] pyridine-5-carboxamide]",–,–,0.1 to 1 µM,1 to 10 µM,–
"C[C@H](NC(=O)c1cc(F)cnc1NCc1ccc(-c2ccc3ncnc(N)c3c2)s1)c1ccc(F)cc1 [Example 7.3.2, (S)-2-(((5-(4-aminoquinazolin-6-yl)thiophen-2-yl)methyl)amino)-5-fluoro-N-(1-(4-fluorophenyl)ethyl) nicotinamide]",–,–,< 0.1 µM,< 1 µM,–
"C[C@H](NC(=O)c1nccnc1NCc1ccc(-c2ccc3ncnc(N)c3c2)s1)c1ccc(F)c(F)c1 [Example 3.77, 3-({[5-(4-aminoquinazolin-6-yl)thiophen-2-yl]methyl}amino)-N-[(1S)-1-(3,4-difluorophenyl)ethyl] pyrazine-2-carboxamide (TFA salt)]",–,–,< 0.1 µM,< 1 µM,–
"O=C1Nc2cc(/C=C/CNc3ncccc3C(=O)NCc3cncc(F)c3)ccc2/C1=C/c1cnc[nH]1 [Example 15.15, 2-((E)-3-((Z)-3-((1H-imidazol-5-yl)methylene)-2-oxoindolin-6-yl)allylamino)-N-((5-fluoropyridin-3-yl)methyl) nicotinamide]",–,–,< 0.1 µM,< 1 µM,–
"Nc1ncnc2ccc(-c3ccc(CNc4ncccc4C(=O)NCc4ccc(F)cc4)s3)cc12 [Example 3.7, 2-({[5-(4-aminoquinazolin-6-yl)thiophen-2-yl]methyl}amino)-N-(4-fluorobenzyl)pyridine-3-carboxamide (TFA salt)]",–,–,< 0.1 µM,< 1 µM,–
"C[C@H](NC(=O)c1cccnc1NCc1cn(-c2ccc3[nH]c(=O)[nH]c3c2)nn1)c1ccc(F)c(F)c1 [Example 9.2, (S)-N-(1-(3,4-difluorophenyl)ethyl)-2-(((1-(2-oxo-2,3-dihydro-1H-benzo[d]imidazol-5-yl)-1H-1,2,3-triazol-4-yl)methyl)amino) nicotinamide]",–,–,> 5 µM,> 10 µM,–
"C[C@H](NC(=O)c1cccnc1NCc1cccc(-c2c[nH]c3ncnc(N)c23)c1)c1ccc(F)c(F)c1 [Example 2.30, (S)-2-(3-(4-amino-7H-pyrrolo[2,3-d]pyrimidin-5-yl)benzylamino)-N-(1-(3,4-difluorophenyl)ethyl) nicotinamide]",–,–,< 0.1 µM,1 to 10 µM,–
"N#Cc1cnc(NCc2ccc(-c3c[nH]c4ncnc(N)c34)cc2)c(-c2ncco2)c1 [Example 43, 6-(4-(4-amino-7H-pyrrolo[2,3-d]pyrimidin-5-yl)benzylamino)-5-(oxazol-2-yl)nicotinonitrile]",1 to 5 µM,1 to 10 µM,–,–,–
"C[C@H](NC(=O)c1cc(C#N)cnc1NC/C=C/c1ccc2c(c1)NC(=O)C2)c1ccc(F)cc1 [Example 15.3, (S,E)-5-cyano-N-(1-(4-fluorophenyl)ethyl)-2-(3-(2-oxoindolin-6-yl)allylamino)nicotinamide]",–,–,> 5 µM,> 10 µM,–
"C[C@H](NC(=O)c1cccnc1NCc1ccc(-c2cn3ccnc3cn2)s1)c1ccc(F)cc1 [Example 2.8, (S)-N-(1-(4-fluorophenyl)ethyl)-2-(((5-(imidazo[1,2-a]pyrazin-6-yl)thiophen-2-yl)methyl)amino)nicotinamide]",–,–,1 to 5 µM,> 10 µM,–
"Nc1ncnc2ccc(-c3ccc(CNc4ncccc4C(=O)Nc4ccc(F)cc4)s3)cc12 [Example 3.47, 2-({[5-(4-aminoquinazolin-6-yl)thiophen-2-yl]methyl}amino)-N-(4-fluorophenyl)pyridine-3-carboxamide (TFA salt)]",–,–,0.1 to 1 µM,< 1 µM,–
"NC(=O)c1cnc(NCc2ccc(-c3ccc4ncnc(N)c4c3)s2)c(C(=O)NCc2ccc(F)c(F)c2)c1 [Ex. 7.24.1, 2-({[5-(4-aminoquinazolin-6-yl)thiophen-2-yl]methyl}amino)-N˜3˜-(3,4-difluorobenzyl)pyridine-3,5-dicarboxamide]",–,–,< 0.1 µM,< 1 µM,–
"CCCNS(=O)(=O)c1cnc(NCc2ccc(-c3ccc4ncnc(N)c4c3)s2)c(C(=O)NCc2ccc(F)c(F)c2)c1 [Example 8.6.9, 2-(((5-(4-aminoquinazolin-6-yl)thiophen-2-yl)methyl)amino)-N-(3,4-difluorobenzyl)-5-(N-propylsulfamoyl) nicotinamide]",–,–,0.1 to 1 µM,1 to 10 µM,–
"Cn1cnc2cnc3ccc(-c4ccc(CNc5ncc(C(F)(F)F)cc5C(=O)NCc5ccc(F)c(F)c5)s4)cc3c21 [Example 2.26, N-(3,4-difluorobenzyl)-2-(((5-(1-methyl-1H-imidazo[4,5-c]quinolin-8-yl)thiophen-2-yl)methyl)amino)-5-(trifluoromethyl)nicotinamide]",–,–,< 0.1 µM,< 1 µM,–

# Now from value to molecule:
IC50 (PDK1; inhibition of PDK1 in vitro),"EC50 [1, 2]",IC50 (PDK1; [3]),"EC50 [1, 4]","EC50 ([1]; PC-3, 2 h, inhibition of P308 Akt in PC-3 cells using MSD)",SMILES
< 0.1 µM,1 to 10 µM,–,–,–,"Nc1ncc(-c2ccc(CNc3ncc(C(F)(F)F)cc3C(=O)Nc3ccc(F)cc3)cc2)nc1O[C@H]1CCC[C@@H]1N [Example 170, 2-{4-[5-Amino-6-((1S,2S)-2-amino-cyclopentyloxy)-pyrazin-2-yl]-benzylamino}-N-(4-fluoro-phenyl)-5-trifluoromethyl-nicotinamide]"
< 0.1 µM,–,–,–,1 to 10 µM,"C[C@H](NC(=O)c1cc(C#N)cnc1NCc1ccc(-c2cnc(N)c(-c3cccc(O)c3)n2)cc1)c1ccc(F)cc1 [Example 234, 2-{4-[5-Amino-6-(3-hydroxy-phenyl)-pyrazin-2-yl]-benzylamino}-5-cyano-N-[(S)-1-(4-fluoro-phenyl)-ethyl]-nicotinamide]"
< 0.1 µM,< 1 µM,–,–,–,"C[C@H](NC(=O)c1cc(C#N)cnc1NCc1ccc(-c2ccc(N)nc2)cc1)c1ccc(F)c(F)c1 [Example 367, (S)-2-(4-(6-aminopyridin-3-yl)benzylamino)-5-cyano-N-(1-(3,4-difluorophenyl)ethyl) nicotinamide]"
< 0.1 µM,< 1 µM,–,–,–,"C[C@H](NC(=O)c1cc(C#N)cnc1NCc1ccc(-c2cnc(N)c(C(N)=O)c2)cc1)c1ccc(F)cc1 [Example 201, (S)-2-(4-(6-amino-5-carbamoylpyridin-3-yl)benzylamino)-5-cyano-N-(1-(4-fluorophenyl)ethyl)nicotinamide]"
< 0.1 µM,> 10 µM,–,–,–,"C[C@H](NC(=O)c1nccnc1NCc1ccc(-c2ccc(N)nc2)cc1)c1ccc(F)cc1 [Example 371, (S)-3-(4-(6-aminopyridin-3-yl)benzylamino)-N-(1-(4-fluorophenyl)ethyl)pyrazine-2-carboxamide]"
< 0.1 µM,1 to 10 µM,–,–,–,"C[C@H](NC(=O)c1cc(C#N)cnc1NCc1ccc(-c2cnc3c(c2)OCCN3)cc1)c1ccc(F)cc1 [Example 137, (S)-5-cyano-2-(4-(3,4-dihydro-2H-pyrido [3,2-b][1,4]oxazin-7-yl)benzylamino)-N-(1-(4-fluorophenyl)ethyl)nicotinamide]"
1 to 5 µM,> 10 µM,–,–,–,"Nc1n[nH]c2ncc(-c3ccc(CNc4ncc(C(F)(F)F)cc4C(=O)N[C@H](CO)c4ccc(Br)cc4)cc3)cc12 [Example 437, (S)-2-(4-(3-amino-1H-pyrazolo[3,4-b]pyridin-5-yl)benzylamino)-N-(1-(4-bromophenyl) 2-hydroxyethyl)-5-(trifluoromethyl)nicotinamide]"
< 0.1 µM,< 1 µM,–,–,–,"C[C@H](NC(=O)c1cc(C#N)cnc1NCc1ccc(-c2cnc(N)c(CCCN(C)C)n2)cc1)c1ccc(F)cc1 [Example 158, (S)-2-(4-(5-amino-6-(3-(dimethylamino)propyl)pyrazin-2-yl)benzylamino)-5-cyano-N-(1-(4-fluorophenyl)ethyl) nicotinamide]"
0.1 to 1 µM,> 10 µM,–,–,–,Nc1cnc(-c2ccc(CNc3ncc(C(F)(F)F)cc3C(=O)NCc3ccc(F)c(F)c3)cn2)cn1 [Example 326]
< 0.1 µM,< 1 µM,–,–,–,"NCCNc1n[nH]c2ncc(-c3ccc(CNc4ncc(C(F)(F)F)cc4C(=O)Nc4ccc(F)cc4)cc3)cc12 [Example 154, 2-(4-(3-(2-amino-ethylamino)-1H-pyrazolo [3,4-b]pyridin-5-yl)benzylamino)-N-(4-fluorophenyl)-5-(trifluoromethyl) nicotinamide]"
< 0.1 µM,1 to 10 µM,–,–,–,"C[C@@H](Nc1ncc(C(F)(F)F)cc1C(=O)Nc1ccc(F)cc1)c1ccc(-c2c[nH]c3ncnc(N)c23)cc1 [Example 433, 2-{(R)-1-[4-(4-Amino-7H-pyrrolo[2,3-d]pyrimidin-5-yl)-phenyl]-ethylamino}-N-(4-fluoro-phenyl)-5-trifluoromethyl-nicotinamide]"
< 0.1 µM,< 1 µM,–,–,–,"C[C@H](NC(=O)c1cc(C(F)(F)F)cnc1NCc1ccc(-c2cnc3[nH]nc(N)c3c2)cc1)c1ccc(Cl)cc1 [Example 277, 2-(4-(3-amino-1H-pyrazolo [3,4-b]pyridin-5-yl)benzylamino)-N-(1-(4-chlorophenyl)ethyl)-5-(trifluoromethyl) nicotinamide]"

# — US10030016B2 (Sunesis Pharmaceuticals, Inc., priority 2009, dated 2018)
